We go through three compounds from patent US20260000672A1, “HISTONE DEACETYLASE INHIBITORS FOR USE IN IMMUNOTHERAPY” (Viracta Subsidiary, Inc., priority 2016, published 2026).

In assay [1] the test system is BALB/c splenocytes. Briefly: FACS analysis of BALB/c splenocytes after 24 hours with test agents. It is filed as cell-based, mouse. The conditions noted are these: for CD45+ CD3+ / CD45+ CD3+ CD4+ / CD45+ CD3+ CD4+ CD25+ / CD45+ CD3+ CD4+ FoxP3+ / CD45+ CD3+ CD4+ FoxP3+, CD25+ / CD45+ CD3+ CD4+ FoxP3+, CD25− / CD45+ CD3+ CD4+ FoxP3− CD25+ / CD45± / Live: 24 hours. The text has this: FACS analysis consisted of the following markers: live/dead, CD45, CD3, CD4, CD25 and FOXP3.
(In flow cytometry, cells or beads pass a laser one at a time.)

The subject of assay [2] is mouse fibroblasts. Particulars: cited from earlier work.
Assay [3] deals with breast cancer cell line MCF-7. The conditions noted are these: cited from earlier work.
The mark [4] stands for this setting: 1 uM, n=5, mean (SD in the line below).

`O=C(NO)c1cnc(N2CC3C(C2)C3NCc2ccc3cc(F)ccc3n2)nc1` (stereo not shown) [VRx-3996, 2-(6-{[(6-Fluoroquinolin-2-yl)methyl]amino}-3-azabicyclo[3.1.0]hex-3-yl)-N-hydroxypyrimidine-5-carboxamide]: in assay [1] (1 nM, n=5), the “CD45+ CD3+” value is reported as 46.9%, the “CD45+ CD3+ CD4+” value amounted to 32.4%, the “CD45+ CD3+ CD4+ CD25+” value came out at 7.93% and the “CD45+ CD3+ CD4+ FoxP3+” value amounted to 12%. Besides, in assay [1] (1 nM, n=5), the “CD45+ CD3+ CD4+ FoxP3+, CD25+” value is given as 6.2%; the “CD45+ CD3+ CD4+ FoxP3+, CD25−” value worked out at 4.47%; the “CD45+ CD3+ CD4+ FoxP3− CD25+” value was 1.14%; the “CD45±” value was determined as 98.6%. Moreover, the Live in assay [1] (1 nM, n=5) was 98.4%. Moreover, in assay [1] (100 nM, n=5), the “CD45+ CD3+” value worked out at 94%, the “CD45+ CD3+ CD4+” value is 75.3%, the “CD45+ CD3+ CD4+ CD25+” value was found to be 1.89% and the “CD45+ CD3+ CD4+ FoxP3+” value amounted to 1.62%. In addition, in assay [1] (100 nM, n=5), the “CD45+ CD3+ CD4+ FoxP3+, CD25+” value was 0.064%; the “CD45+ CD3+ CD4+ FoxP3+, CD25−” value is on record as 0.34%; the “CD45+ CD3+ CD4+ FoxP3− CD25+” value is reported as 1.22%; the “CD45±” value amounted to 99.6%. The same compound displayed a Live in assay [1] (100 nM, n=5) of 91.4%. Moreover, in assay [1] (500 nM, n=5), the “CD45+ CD3+” value is on record as 94%, the “CD45+ CD3+ CD4+” value is on record as 80.6%, the “CD45+ CD3+ CD4+ CD25+” value came out at 3.03% and the “CD45+ CD3+ CD4+ FoxP3+” value is on record as 2.36%. Moreover, in assay [1] (500 nM, n=5), the “CD45+ CD3+ CD4+ FoxP3+, CD25+” value was 0.22%; the “CD45+ CD3+ CD4+ FoxP3+, CD25−” value stood at 0.47%; the “CD45+ CD3+ CD4+ FoxP3− CD25+” value was determined as 1.69%; the “CD45±” value is 99.5%. For the same compound, in assay [1] (500 nM, n=5), the Live was 87.2%. Further, in assay [1] (1 uM, n=5), the “CD45+ CD3+” value is on record as 94.7%, the “CD45+ CD3+ CD4+” value turned out to be 82.2%, the “CD45+ CD3+ CD4+ CD25+” value was determined as 3.57% and the “CD45+ CD3+ CD4+ FoxP3+” value worked out at 3.85%. In assay [1] (1 uM, n=5), the “CD45+ CD3+ CD4+ FoxP3+, CD25+” value worked out at 0.14%; the “CD45+ CD3+ CD4+ FoxP3+, CD25−” value is on record as 0.8%; the “CD45+ CD3+ CD4+ FoxP3− CD25+” value turned out to be 1.96%; the “CD45±” value was 99.6%. The same compound had a Live in assay [1] (setting [4]) of 84.7%. In assay [1] (compared to entinostat at 1 μM), the “reduction in FoxP3, CD25+ T cells” value is on record as about 47 fold. The “concentration at which the suppressive effect on FoxP3+, CD25+ T cells was seen” value in assay [1] (seen at least as low as) is on record as at most 100 nM. In assay [1] (striking when compared to entinostat), the “effect on CD4+, CD25+, and FoxP3+ regulatory cells” value is on record as “specifically reduces”.

As for `Nc1ccccc1NC(=O)c1ccc(CNC(=O)OCc2cccnc2)cc1` [Entinostat, reference compound], in assay [1] (1 uM, n=5), the “CD45+ CD3+ CD4+” value came to 38.5%; the “CD45+ CD3+ CD4+ CD25+” value turned out to be 10.4%; the “CD45+ CD3+ CD4+ FoxP3+” value came to 10.1%; the “CD45+ CD3+ CD4+ FoxP3+, CD25+” value worked out at 5.12%. For the same compound, in assay [1] (1 uM, n=5), the “CD45+ CD3+ CD4+ FoxP3+, CD25−” value is recorded as 2.33%; the “CD45+ CD3+ CD4+ FoxP3− CD25+” value is listed as 4.57%; the “CD45±” value is listed as 99.1%. The compound further showed a Live in assay [1] (setting [4]) of 97.6%.

`CCCC(=O)O` [butyrate]: the cell cycle result in assay [2] was “block the cell cycle in the G1 phase”. In assay [3], the cellular proliferation result is on record as “induces a block in cellular proliferation”.
